ChEMBL document CHEMBL2390860, “Chemical constituents from Nelumbo nucifera leaves and their anti-obesity effects” (Bioorg Med Chem Lett, 2013)
Calls of active or inactive are those of the source. The rule behind the calls is not given here.

What was measured:
[1] = molecular target: T1, Pancreatic triacylglycerol lipase (Sus scrofa) (UniProt P00591); assay: Inhibition of porcine pancreatic lipase using para-nitrophenyl butyrate as substrate at 100 uM by ELISA
T1 sequence (whole entry): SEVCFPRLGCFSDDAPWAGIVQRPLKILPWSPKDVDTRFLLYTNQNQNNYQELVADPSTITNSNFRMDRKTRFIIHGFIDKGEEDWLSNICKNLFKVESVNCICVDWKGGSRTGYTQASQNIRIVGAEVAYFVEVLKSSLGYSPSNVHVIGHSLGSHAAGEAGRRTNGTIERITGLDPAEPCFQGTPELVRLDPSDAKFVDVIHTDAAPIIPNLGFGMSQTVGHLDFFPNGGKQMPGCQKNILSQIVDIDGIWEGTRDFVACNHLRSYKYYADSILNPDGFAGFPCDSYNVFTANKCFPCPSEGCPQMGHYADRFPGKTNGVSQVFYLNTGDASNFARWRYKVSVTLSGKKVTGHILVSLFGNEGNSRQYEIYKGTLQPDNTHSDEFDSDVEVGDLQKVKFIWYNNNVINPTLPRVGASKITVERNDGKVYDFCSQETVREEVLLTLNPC

[2] = tested on: 3T3-L1; assay: Antiobesity activity in mouse 3T3L1 cells assessed as reduction of fat accumulation at 100 uM by oil Red O staining-based ELISA; type: functional, cell-based

SMILES: O=C1c2c(O)cc(O)cc2O[C@H](c2ccc(O)c(O)c2)[C@H]1O
- Lipase inhibition (active/not active) [1]: Active

SMILES: O=C1c2ccccc2-c2c3c(cc4ccnc1c24)OCO3
- Lipase inhibition (active/not active) [1]: Active
- Activity [2]: Active

SMILES: CC(=O)/C=C/[C@@]12O[C@]1(C)C[C@@H](O[C@@H]1O[C@H](CO)[C@@H](O)[C@H](O)[C@H]1O)CC2(C)C
- Lipase inhibition (active/not active) [1]: inactive
- Activity [2]: inactive

SMILES: COc1cc(/C=C/C(=O)NCCc2ccc(O)cc2)ccc1O
- Lipase inhibition (active/not active) [1]: Active
- Activity [2]: inactive

SMILES: CC(=O)/C=C\[C@@H]1[C@@H](C)C[C@@H](O[C@@H]2O[C@H](CO)[C@@H](O)[C@H](O)[C@H]2O)CC1(C)C
- Lipase inhibition (active/not active) [1]: inactive
- Activity [2]: inactive

SMILES: Oc1ccc([C@H]2Oc3c(O)c(O)c(O)c(O)c3C[C@@H]2O)cc1O
- Lipase inhibition (active/not active) [1]: Active

SMILES: C[N+]1([O-])CCc2cc3c(c4c2[C@H]1Cc1ccccc1-4)OCO3 (some centres undefined)
- Lipase inhibition (active/not active) [1]: Active
- Activity [2]: Active

SMILES: COc1cc(/C=C\C(=O)NCCc2ccc(O)cc2)ccc1O
- Lipase inhibition (active/not active) [1]: Active
- Activity [2]: inactive

SMILES: CC(=O)C=C=C1C(C)(C)C[C@H](O)C[C@@]1(C)O
- Lipase inhibition (active/not active) [1]: inactive
- Activity [2]: inactive

SMILES: O=c1c(O)c(-c2ccc(O)cc2)oc2cc(O)cc(O)c12
- Lipase inhibition (active/not active) [1]: Active
- Activity [2]: Active

SMILES: CC(=O)C=C=C1C(C)(C)C[C@H](O)C[C@]1(C)O
- Lipase inhibition (active/not active) [1]: inactive
- Activity [2]: inactive

SMILES: O=c1c(O[C@@H]2O[C@H](CO)[C@@H](O)[C@H](O)[C@H]2O)c(-c2ccc(O)cc2)oc2cc(O)cc(O)c12
- Lipase inhibition (active/not active) [1]: inactive
- Activity [2]: Active

SMILES: O=C1c2c(O)cc(O)cc2O[C@@H](c2ccc(O)c(O)c2)[C@H]1O
- Lipase inhibition (active/not active) [1]: Active
- Activity [2]: Active

SMILES: CC(=O)/C=C/[C@@]1(O)C(C)=CC(=O)CC1(C)C
- Lipase inhibition (active/not active) [1]: inactive
- Activity [2]: inactive

SMILES: CC(=O)/C=C/[C@@]12O[C@]1(C)C[C@@H](O)CC2(C)C
- Lipase inhibition (active/not active) [1]: inactive
- Activity [2]: Active

SMILES: O=C1CC[C@@H]2c3cc(O)c(O)cc3CCN12
- Lipase inhibition (active/not active) [1]: Active

SMILES: O=c1cc(-c2ccc(O)c(O)c2)oc2cc(O)cc(O)c12
- Lipase inhibition (active/not active) [1]: Active
- Activity [2]: Active

SMILES: O=c1c(O)c(-c2ccc(O)c(O)c2)oc2cc(O)cc(O)c12
- Lipase inhibition (active/not active) [1]: Active
- Activity [2]: Active

SMILES: O=C(/C=C/c1ccc(O)cc1)NCCc1ccc(O)cc1
- Lipase inhibition (active/not active) [1]: Active
- Activity [2]: inactive

SMILES: CC1=CC(=O)CC(C)(C)[C@@]1(O)/C=C/[C@@H](C)O
- Lipase inhibition (active/not active) [1]: inactive
- Activity [2]: inactive

SMILES: CC1=C2C[C@@H](C(C)(C)O[C@@H]3O[C@H](CO)[C@@H](O)[C@H](O)[C@H]3O)CC[C@@]2(C)CCC1=O
- Lipase inhibition (active/not active) [1]: inactive
- Activity [2]: inactive

SMILES: COc1cc(-c2oc3cc(O[C@@H]4O[C@H](CO)[C@@H](O)[C@H](O)[C@H]4O)cc(O)c3c(=O)c2O)ccc1O
- Lipase inhibition (active/not active) [1]: inactive
- Activity [2]: Active

SMILES: CC1(C)C[C@@H](O)C[C@@]2(C)OC(=O)C=C12
- Lipase inhibition (active/not active) [1]: inactive
- Activity [2]: inactive

SMILES: O=c1c(O[C@@H]2O[C@H](CO)[C@@H](O)[C@H](O)[C@H]2O)c(-c2ccc(O)c(O)c2)oc2cc(O)cc(O)c12
- Lipase inhibition (active/not active) [1]: inactive
- Activity [2]: Active

SMILES: CC(=O)/C=C/[C@]12O[C@@]1(C)C[C@@H](O)CC2(C)C
- Lipase inhibition (active/not active) [1]: inactive
- Activity [2]: Active

SMILES: CC(=O)/C=C/[C@H]1C(C)=C[C@H](O[C@@H]2O[C@H](CO)[C@@H](O)[C@H](O)[C@H]2O)CC1(C)C
- Lipase inhibition (active/not active) [1]: inactive
- Activity [2]: inactive

SMILES: CC1=CC(=O)CC(C)(C)/C1=C/C[C@H](C)O
- Lipase inhibition (active/not active) [1]: inactive
- Activity [2]: inactive

SMILES: CC(=O)/C=C/[C@]1(O)[C@@H](C)C[C@@H](O)CC1(C)C
- Lipase inhibition (active/not active) [1]: inactive
- Activity [2]: inactive

SMILES: COc1cc2c3c(c1OC)C1(C=CC(=O)C=C1)C[C@H]3N(C)CC2
- Lipase inhibition (active/not active) [1]: Active

SMILES: CC(=O)/C=C/[C@H]1[C@H](C)C[C@H](O)CC1(C)C
- Lipase inhibition (active/not active) [1]: inactive
- Activity [2]: inactive

SMILES: O=C(/C=C\c1ccc(O)cc1)NCCc1ccc(O)cc1
- Lipase inhibition (active/not active) [1]: Active
- Activity [2]: inactive

SMILES: Oc1cc(O)c2c(c1)O[C@@H](c1ccc(O)c(O)c1)[C@H](O)C2
- Lipase inhibition (active/not active) [1]: Active
